Experimental data published in PubChem BioAssay (NCI).
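Compound exposure: 48 hours, 5 concentrations, 96-well plates. TGI: total growth inhibition.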

Assays:
Assay in all cases: NCI-60 cell line screen, 48 h
[1] = system: LOX IMVI melanoma
[2] = system: HCT-116 colon
[3] = system: MOLT-4 leukemia
[4] = system: SR leukemia
[5] = system: 786-0 renal
[6] = system: M19-MEL melanoma
[7] = system: SW-620 colon
[8] = system: DLD-1 colon
[9] = system: HCC-2998 colon
[10] = system: SNB-75 CNS
[11] = system: OVCAR-3 ovarian
[12] = system: OVCAR-4 ovarian
[13] = system: SF-295 CNS
[14] = system: HOP-92 NSCLC
[15] = system: UACC-257 melanoma
[16] = system: RXF-631 renal
[17] = system: HOP-62 NSCLC
[18] = system: IGROV1 ovarian
[19] = system: MALME-3M melanoma
[20] = system: HCT-15 colon
[21] = system: EKVX NSCLC
[22] = system: SF-268 CNS
[23] = system: SK-OV-3 ovarian
[24] = system: NCI-H522 lung
[25] = system: HL-60(TB) leukemia
[26] = system: A498 renal
[27] = system: NCI-H460 lung
[28] = system: SK-MEL-5 melanoma
[29] = system: COLO 205 colon
[30] = system: UO-31 renal
[31] = system: SN12C renal
[32] = system: NCI-H226 lung
[33] = system: SK-MEL-2 melanoma
[34] = system: SNB-19 CNS
[35] = system: ACHN renal
[36] = system: HOP-18 NSCLC
[37] = system: CCRF-CEM leukemia
[38] = system: A549 NSCLC
[39] = system: M14 melanoma
[40] = system: OVCAR-5 ovarian
[41] = system: UACC-62 melanoma
[42] = system: DMS 114 small cell lung
[43] = system: SF-539 CNS
[44] = system: KM12 colon
[45] = system: LXFL 529 NSCLC
[46] = system: HT29 colon
[47] = system: OVCAR-8 ovarian
[48] = system: CAKI-1 renal
[49] = system: K-562 leukemia
[50] = system: SK-MEL-28 melanoma
[51] = system: XF 498 CNS
[52] = system: TK-10 renal
[53] = system: DMS 273 small cell lung
[54] = system: U251 CNS
[55] = system: KM20L2 colon
[56] = system: RPMI-8226 leukemia
[57] = system: NCI-H23 lung
[58] = system: MDA-MB-435
[59] = system: BT-549 breast
[60] = system: HS 578T breast
[61] = system: RXF 393 renal
[62] = system: MDA-MB-231 breast
[63] = system: DU-145 prostate
[64] = system: SNB-78 CNS
[65] = system: PC-3 prostate
[66] = system: NCI/ADR-RES ovarian
[67] = system: MDA-N
[68] = system: MCF7 breast
[69] = system: T-47D breast

`O=[N+]([O-])c1ccc(-c2ccc(C3=Nn4c(nnc4-c4ccc(Cl)cc4)SC3)o2)cc1` showed a TGI [1] of over 100 µM, a TGI [2] of over 100 µM and a TGI [3] of over 100 µM. It also gave a TGI [4] of over 100 µM, a TGI [5] of over 100 µM and a TGI [6] of over 100 µM. For the same compound, the TGI [7] was over 100 µM, the TGI [8] was over 100 µM and the TGI [9] was over 100 µM. It also gave a TGI [10] of over 65.3 µM, a TGI [11] of over 100 µM and a TGI [12] of over 100 µM. It also gave a TGI [13] of over 82.1 µM, a TGI [14] of over 75.8 µM and a TGI [15] of over 100 µM. It also gave a TGI [16] of over 100 µM, a TGI [17] of over 76.3 µM and a TGI [18] of over 100 µM. It also gave a TGI [19] of over 91.6 µM, a TGI [20] of over 100 µM and a TGI [21] of over 100 µM. For the same compound, the TGI [22] was over 100 µM, the TGI [23] was over 100 µM and the TGI [24] was over 100 µM. For the same compound, the TGI [25] was over 100 µM, the TGI [26] was over 100 µM and the TGI [27] was over 100 µM. For the same compound, the TGI [28] was over 100 µM, the TGI [29] was over 100 µM and the TGI [30] was over 100 µM. The TGI [31] was over 100 µM, the TGI [32] was over 100 µM and the TGI [33] was over 100 µM. For the same compound, the TGI [34] was over 76.8 µM, the TGI [35] was over 100 µM and the TGI [36] was over 100 µM. For the same compound, the TGI [37] was over 100 µM, the TGI [38] was over 100 µM and the TGI [39] was over 100 µM. For the same compound, the TGI [40] was over 100 µM, the TGI [41] was over 100 µM and the TGI [42] was over 100 µM. It also gave a TGI [43] of over 100 µM, a TGI [44] of over 100 µM and a TGI [45] of over 100 µM. It also gave a TGI [46] of over 100 µM, a TGI [47] of over 100 µM and a TGI [48] of over 100 µM. For the same compound, the TGI [49] was over 100 µM, the TGI [50] was over 100 µM and the TGI [51] was 60.1 µM. The TGI [52] was 53.4 µM, the TGI [53] was over 100 µM and the TGI [54] was over 70.7 µM. The TGI [55] was over 100 µM, the TGI [56] was over 100 µM and the TGI [57] was over 85.9 µM.
`CC[N+]1(C)CCC(O)(/C=C/c2ccccc2)C(C(=O)/C=C/c2ccccc2)C1` (stereo not given) gave a TGI [1] of 7.79 µM, a TGI [2] of 38 µM and a TGI [3] of 7.11 µM. For the same compound, the TGI [4] was 6.68 µM, the TGI [5] was 13.9 µM and the TGI [58] was 31.7 µM. For the same compound, the TGI [6] was 27.3 µM, the TGI [7] was 6.45 µM and the TGI [59] was 34.5 µM. The TGI [8] was 37.3 µM, the TGI [9] was 30.8 µM and the TGI [10] was 34.7 µM. The TGI [11] was 28 µM, the TGI [60] was over 100 µM and the TGI [12] was 43.7 µM. The TGI [61] was 19.7 µM, the TGI [62] was 31 µM and the TGI [63] was 39.1 µM. The TGI [13] was 33.4 µM, the TGI [14] was 31.4 µM and the TGI [15] was 24.8 µM. It also gave a TGI [17] of 35.5 µM, a TGI [18] of 37.9 µM and a TGI [19] of 26.9 µM. The TGI [20] was 15.5 µM, the TGI [64] was over 78.7 µM and the TGI [21] was 51.6 µM. It also gave a TGI [22] of 60.5 µM, a TGI [23] of 32.9 µM and a TGI [24] of 3.78 µM. The TGI [25] was 8.48 µM, the TGI [26] was 38.9 µM and the TGI [27] was 43.5 µM. It also gave a TGI [28] of 32.7 µM, a TGI [29] of 8.19 µM and a TGI [65] of 29.6 µM. It also gave a TGI [30] of 29.5 µM, a TGI [31] of 18 µM and a TGI [32] of 29.7 µM. The TGI [33] was 39.5 µM, the TGI [34] was 29.7 µM and the TGI [35] was 25.4 µM. The TGI [36] was 31.3 µM, the TGI [37] was 10.8 µM and the TGI [38] was 45.7 µM. It also gave a TGI [39] of 25.8 µM, a TGI [66] of over 100 µM and a TGI [40] of 36.1 µM. It also gave a TGI [41] of 33.4 µM, a TGI [42] of 16.9 µM and a TGI [67] of 23.7 µM. The TGI [43] was 19 µM, the TGI [44] was 10.2 µM and the TGI [45] was 6.7 µM. For the same compound, the TGI [46] was 27.5 µM, the TGI [68] was over 23.7 µM and the TGI [47] was 43 µM. The TGI [48] was 3.42 µM, the TGI [49] was 10.8 µM and the TGI [50] was 18.9 µM. For the same compound, the TGI [51] was 26.7 µM, the TGI [52] was 18.3 µM and the TGI [53] was 47.3 µM. For the same compound, the TGI [54] was 22.5 µM, the TGI [55] was 49.3 µM and the TGI [56] was 5.76 µM. The TGI [57] was 35 µM and the TGI [69] was 40.4 µM.
